Data reported in ChEMBL document CHEMBL1129635, “Evaluation of selected chemotypes in coupled cellular and molecular target-based screens identifies novel HIV-1 zinc finger inhibitors” (J Med Chem, 1996).
Calls of active or inactive are those of the source. No cut-off for these calls is given here.

What was measured:
[1] = test system: Human immunodeficiency virus 1; experiment: Tested against zinc finger of the recombinant HIV-1 p7NC protein by using Trp residue for fluorometric measurements; type: functional
[2] = test system: Human immunodeficiency virus 1; experiment: Compound was tested for inhibition of HIV-1 replication in human T-cell by using XTT assay; Moderately active; type: functional, organism-based
[3] = test system: Human immunodeficiency virus 1; experiment: Effective concentration required for 50% production of p24 production.; type: functional, organism-based
[4] = test system: Human immunodeficiency virus 1; experiment: Tested for cytoprotection against production of HIV-1 p24.; type: functional, organism-based
[5] = test system: Human immunodeficiency virus 1; experiment: Inhibition of HIV-1 replication in human T-cell by using XTT assay.; type: functional
[6] = test system: Human immunodeficiency virus 1; experiment: Tested against zinc finger of the recombinant HIV-1 p7NC toluenesulfonamide) residue for fluorometric measurements; type: functional
T-cell line = experiment: Compound was tested for inhibition of HIV-1 replication in human T-cell by using XTT assay; Active; type: functional, cell-based
[7] = test system: Human immunodeficiency virus 1; experiment: Compound was tested for effective concentration required for 50% production of p24 production; NA = Not active; type: functional, organism-based

| Compound | Decrease in RFU [1] | Activity [2] | EC50 [3] | IC50 [4] | TI50 [5] | increase in RFU [6] | Activity (T-cell line) | EC50 [7] |
| --- | --- | --- | --- | --- | --- | --- | --- | --- |
| O=S(=O)(SC1=NCCN1)c1ccccc1 | 76.1% | Weak activity | 37.2 µM | > 100 µM | 4.3 | 15.7% |  |  |
| Cc1cc(C(=O)O)c(C)cc1SSc1cc(C)c(C(=O)O)cc1C | 76.1% | Weak activity | 32 µM | > 100 µM | 3.6 | 15.7% |  |  |
| N=C(N)Nc1ccccc1SSc1ccccc1N=C(N)N | 31.3% |  | 10 µM | > 100 µM | 32 | 1.6% | Active |  |
| O=C(O)Cc1ccc(SSc2ccc(CC(=O)O)cc2)cc1 | 51.5% | Weak activity | > 100 µM | > 100 µM | >8.7 | 10.6% |  |  |
| CC1(C)CC2=NC(SSC3=C(C#N)C(c4ccc(F)cc4)C4=C(O)CC(C)(C)CC4=N3)=C(C#N)C(c3ccc(F)cc3)C2=C(O)C1 (stereo not given) | 78.1% | Weak activity | > 100 µM | > 100 µM | 3.2 | 0.3% |  |  |
| Cc1cc(C)c(C(=O)O)c(SSc2cc(C)cc(C)c2C(=O)O)c1 |  | Weak activity |  |  | 2.7 |  |  | Not Active |
| COC(=S)SSC(=S)N(CC/N=C(/S)SSC(=S)OC)CC/N=C(\S)SSC(=S)OC | 37.7% | Weak activity | > 100 µM | > 100 µM | 2.6 | 10.6% |  |  |
| NNC(=O)c1ccccc1SSc1ccccc1C(=O)NN | 80.9% | Weak activity | 21 µM | 96 µM | 5 | 28.5% |  |  |
| CC(=O)NC1CN=C(SSC2=NCC(NC(C)=O)S2)S1 (stereo not given) | 77.8% | Weak activity | > 100 µM | > 100 µM | >5.3 | 8% |  |  |
| CNCCSS(=O)(=O)CCNC |  | Weak activity |  |  | >1.8 |  |  |  |
| O=C(O)c1ccccc1SSc1ccccc1C(=O)O | 6% | Weak activity | 57.5 µM | > 100 µM | >1.7 | 9.8% |  |  |
| NC(=O)CSSCC(N)=O | 2.1% | Weak activity | > 100 µM | > 100 µM | 6.5 | 1.2% |  |  |
| COS(=O)CCOC(=O)c1ccccc1SSc1ccccc1C(=O)OCCS(=O)OC (stereo not given) |  | Weak activity |  |  | >2.1 |  |  | Not Active |
| CC(=O)NCCSS(=O)(=O)CCCCS(=O)(=O)SCCNC(C)=O | 82.5% | Weak activity | > 100 µM | > 100 µM | >1.6 | 32.8% |  |  |
| O=C(O)c1ccc(SSc2ccc(C(=O)O)cc2)cc1 | 62.5% | Weak activity | > 100 µM | > 100 µM | >1.6 | 22.3% |  |  |
| Nc1ccc(S(N)(=O)=O)cc1SSc1cc(S(N)(=O)=O)ccc1N | 52.1% | Weak activity | > 100 µM | 97 µM | >14.2 | 26% |  |  |
| O=C(O)c1cccc(SS(=O)(=O)c2cccc(C(=O)O)c2)c1 | 91.2% | Weak activity | 71 µM | > 100 µM | 13.7 | 21.1% |  |  |
| Cc1cc(S(=O)(=O)C2=NC(Nc3ccccc3)NN2)c(SSc2cc(Cl)c(C)cc2S(=O)(=O)C2=NC(Nc3ccccc3)NN2)cc1Cl (stereo not given) | 92.1% | Weak activity | 80 µM | > 100 µM | 15.7 | 1.5% |  |  |
| Nc1cc(S(N)(=O)=O)ccc1SSc1ccc(S(N)(=O)=O)cc1N | 81.8% | Weak activity | > 100 µM | 100 µM | 14.9 | 24.4% |  |  |
| NS(=O)(=O)c1ccc(SSc2ccc(S(N)(=O)=O)cc2[N+](=O)[O-])c([N+](=O)[O-])c1 |  | Weak activity |  |  | >5.8 |  |  |  |
| O=C(N/N=C\c1ccc(Cl)cc1Cl)c1ccccc1SSc1ccccc1C(=O)N/N=C\c1ccc(Cl)cc1Cl | 31.3% |  | 3.5 µM | > 100 µM | >15.9 | 1.6% | Active |  |
| COc1cc(SSc2cc(OC)cc([N+](=O)[O-])c2N)c(N)c([N+](=O)[O-])c1 | 80.5% | Weak activity | 7.5 µM | > 100 µM | 8.5 | 0% |  |  |
| Nc1cc(C(=O)O)ccc1SSc1ccc(C(=O)O)cc1N | 79.3% | Weak activity | > 100 µM | > 100 µM | >6.4 | 10.9% |  |  |
| CC1(C)CC2=NC(SSC3=C(C#N)C(c4ccc(Br)cc4)C4=C(O)CC(C)(C)CC4=N3)=C(C#N)C(c3ccc(Br)cc3)C2=C(O)C1 (stereo not given) | 24.8% | Weak activity | > 100 µM | > 100 µM | 3.4 | 0.3% |  |  |
